According to ChEMBL document CHEMBL3611986, “Reversal of P-gp and BCRP-mediated MDR by tariquidar derivatives” (Eur J Med Chem, 2015):
pIC50: −log10 of the molar value. The source made the active and inactive calls. The rule behind the calls is not given here.

Columns and labels:
HCT-116 = assay: Cytotoxicity against human HCT116 cells assessed as cell viability after 48 hrs by MTT assay; type: cell-based; settings: HCT-116, 48 h
SW-620 [1] = assay: Cytotoxicity against human SW620 cells assessed as cell viability after 48 hrs by MTT assay; type: cell-based; settings: SW-620, 48 h
[2] = Cytotoxicity against human SW620/AD300 cells assessed as cell viability after 48 hrs by MTT assay; type: cell-based; settings: SW-620, 48 h
[3] = Cytotoxicity against human CCD-18Co cells assessed as cell viability after 48 hrs by MTT assay; type: cell-based
[4] = Cytotoxicity against human HFE cells assessed as cell viability after 72 hrs by MTT assay; type: cell-based
Hepatocyte = assay: Cytotoxicity against rat hepatocytes assessed as cell viability after 72 hrs by MTT assay; type: cell-based; settings: for pIC50: Rattus norvegicus, Hepatocyte; for Activity: rat, hepatocytes
[5] = target: T1, ATP-dependent translocase ABCB1 (Homo sapiens, UniProt P08183); assay: (§1) Inhibition of p-glycoprotein-mediated rhodamine-123 efflux in human K562/p-gp cells at 0.5 uM after 1 hr by flow cytometry relative to tariquidar; type: cell-based; settings: 1 h, 0.5 µM
[6] = target: T1, ATP-dependent translocase ABCB1; assay: Inhibition of p-glycoprotein-mediated rhodamine-123 efflux in human K562/p-gp cells after 1 hr by flow cytometry; type: cell-based
K562 [7] = assay: Effect on rhodamine-123 efflux in wild type human K562 cells at 0.5 uM after 1 hr by flow cytometry; type: ADME, cell-based; settings: k562, 1 h
BCRP (ABCG2) = target: T2, BCRP (ABCG2) (Homo sapiens, UniProt Q9UNQ0); assay: (§2) Inhibition of BCRP-mediated pheophorbide-A efflux in human K562/BCRP cells at 0.5 uM after 1 hr by flow cytometry; type: cell-based; settings: K562/BCRP cells, probe pheophorbide-A
T2 sequence (Q9UNQ0 whole entry): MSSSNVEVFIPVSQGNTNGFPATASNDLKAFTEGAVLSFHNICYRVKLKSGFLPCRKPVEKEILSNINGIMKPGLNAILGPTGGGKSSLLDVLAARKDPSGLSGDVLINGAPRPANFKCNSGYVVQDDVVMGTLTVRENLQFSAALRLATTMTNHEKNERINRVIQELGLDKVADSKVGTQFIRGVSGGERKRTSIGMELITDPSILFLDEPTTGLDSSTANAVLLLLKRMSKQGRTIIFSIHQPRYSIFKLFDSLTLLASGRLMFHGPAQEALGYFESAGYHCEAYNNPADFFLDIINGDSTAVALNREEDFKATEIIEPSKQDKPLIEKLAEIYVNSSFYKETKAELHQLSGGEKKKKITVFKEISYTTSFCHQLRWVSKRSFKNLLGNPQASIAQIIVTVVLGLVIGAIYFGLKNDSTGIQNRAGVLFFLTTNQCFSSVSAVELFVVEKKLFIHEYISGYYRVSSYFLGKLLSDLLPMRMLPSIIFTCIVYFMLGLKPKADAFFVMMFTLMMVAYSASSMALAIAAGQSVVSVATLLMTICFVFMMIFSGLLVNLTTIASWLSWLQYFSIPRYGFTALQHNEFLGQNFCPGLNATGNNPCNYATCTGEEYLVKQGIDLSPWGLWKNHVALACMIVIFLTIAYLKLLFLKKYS

[8] = target: Multidrug resistance-associated protein 1 (Homo sapiens, UniProt P33527); assay: Inhibition of MRP1 (unknown origin)-mediated calcein-AM efflux expressed in HEK293/MRP1 cells at 0.5 uM after 1 hr by flow cytometry; type: cell-based; settings: hek293/mrp1, 1 h
[9] = Potentiation of paclitaxel-induced cytotoxicity against human LCC6 cells at 200 nM after 72 hrs by SRB assay relative to control; type: functional
[10] = target: T1, ATP-dependent translocase ABCB1; assay: Inhibition of p-glycoprotein in human LCC6/MDR cells assessed as increase of paclitaxel-induced cytotoxicity at 200 nM after 72 hrs by SRB assay relative to control; type: cell-based; settings: 0.2 µM
MCF7 [11] = assay: Potentiation of mitoxantrone-induced cytotoxicity against human MCF7 cells at 200 nM after 72 hrs by SRB assay relative to control; type: functional
[12] = target: T3, Broad substrate specificity ATP-binding cassette transporter ABCG2 (Homo sapiens, UniProt Q9UNQ0); assay: Inhibition of BCRP in human MCF-7 FLV1000 cells assessed as increase of mitoxantrone-induced cytotoxicity at 200 nM after 72 hrs by SRB assay relative to control; type: cell-based; settings: 0.2 µM
T3 sequence (Q9UNQ0 whole entry): T2 sequence (Q9UNQ0 whole entry)

MCF7 [13] = assay: Cytotoxicity against human MCF7 cells at 200 nM after 72 hrs by SRB assay; type: cell-based; settings: mcf7, 72 h, 0.2 µM
[14] = Cytotoxicity against human MCF-7 FLV1000 cells expressing BCRP at 200 nM after 72 hrs by SRB assay; type: ADME, cell-based; settings: mcf-7 flv1000, 72 h, 0.2 µM
[15] = Cytotoxicity against human LCC6 cells at 200 nM after 72 hrs by SRB assay; type: cell-based; settings: lcc6, 72 h, 0.2 µM
[16] = Cytotoxicity against human LCC6 cells expressing p-glycoprotein at 200 nM after 72 hrs by SRB assay; type: cell-based; settings: lcc6, 72 h, 0.2 µM
K562 [17] = assay: Induction of UIC2 antibody binding to p-glycoprotein in human K562 cells at 0.5 uM preincubated for 10 mins followed by antibody addition measured after 45 mins by flow cytometry relative to tariquidar; type: cell-based
[18] = target: T3, Broad substrate specificity ATP-binding cassette transporter ABCG2; assay: Induction of 5D3 antibody binding to BCRP in human K562 cells at 0.5 uM preincubated for 10 mins followed by antibody addition measured after 45 mins by flow cytometry relative to tariquidar; type: cell-based; settings: k562, 0.75 h
Homo sapiens = species: Homo sapiens; assay: Inhibition of p-glycoprotein (unknown origin) expressed in High five insect cell membranes assessed as ATP hydrolysis after 20 mins by colorimetric ATPase assay
[19] = target: T3, Broad substrate specificity ATP-binding cassette transporter ABCG2; assay: Induction of BCRP (unknown origin) expressed in High five insect cell membranes assessed as ATP hydrolysis after 10 mins by colorimetric ATPase assay
P-glycoprotein (ABCB1) = P-glycoprotein (ABCB1) (Homo sapiens, UniProt P08183); assay: as §1; type: cell-based; settings: K562/p-gp cells, probe rhodamine-123
[20] = target: T1, ATP-dependent translocase ABCB1; assay: Inhibition of p-glycoprotein-mediated doxorubicin efflux in human K562/p-gp cells at 1 uM after 1 hr by flow cytometry; type: cell-based
[21] = target: T3, Broad substrate specificity ATP-binding cassette transporter ABCG2; assay: as §2; type: cell-based; settings: k562/bcrp, 1 h, 0.5 µM
HepG2 [22] = assay: Potentiation of doxorubicin-induced cytotoxicity against human HepG2 cells at 200 nM after 72 hrs by SRB assay relative to control; type: functional
[23] = target: T1, ATP-dependent translocase ABCB1; assay: Inhibition of p-glycoprotein in human HepG2 cells assessed as increase of doxorubicin-induced cytotoxicity at 200 nM after 72 hrs by SRB assay relative to control; type: cell-based; settings: hepg2, 72 h, 0.2 µM
SW-620 [24] = assay: Potentiation of doxorubicin-induced cytotoxicity against human SW620 cells at 200 nM after 72 hrs by SRB assay relative to control; type: functional
[25] = target: T1, ATP-dependent translocase ABCB1; assay: Inhibition of p-glycoprotein in human SW620/AD300 cells assessed as increase of doxorubicin-induced cytotoxicity at 200 nM after 72 hrs by SRB assay relative to control; type: cell-based; settings: sw-620, 72 h, 0.2 µM
SW-620 [26] = assay: Cytotoxicity against human SW620 cells at 200 nM after 72 hrs by SRB assay; type: cell-based; settings: sw-620, 72 h, 0.2 µM
[27] = Cytotoxicity against human SW620/AD300 cells expressing p-glycoprotein at 200 nM after 72 hrs by SRB assay; type: cell-based; settings: sw-620, 72 h, 0.2 µM
HepG2 [28] = assay: Cytotoxicity against human HepG2 cells at 200 nM after 72 hrs by SRB assay; type: cell-based; settings: hepg2, 72 h, 0.2 µM
HepG2 [29] = assay: Cytotoxicity against human HepG2 cells expressing p-glycoprotein at 200 nM after 72 hrs by SRB assay; type: cell-based; settings: hepg2, 72 h, 0.2 µM

Chain of Multidrug resistance-associated protein 1 (P33527 whole entry): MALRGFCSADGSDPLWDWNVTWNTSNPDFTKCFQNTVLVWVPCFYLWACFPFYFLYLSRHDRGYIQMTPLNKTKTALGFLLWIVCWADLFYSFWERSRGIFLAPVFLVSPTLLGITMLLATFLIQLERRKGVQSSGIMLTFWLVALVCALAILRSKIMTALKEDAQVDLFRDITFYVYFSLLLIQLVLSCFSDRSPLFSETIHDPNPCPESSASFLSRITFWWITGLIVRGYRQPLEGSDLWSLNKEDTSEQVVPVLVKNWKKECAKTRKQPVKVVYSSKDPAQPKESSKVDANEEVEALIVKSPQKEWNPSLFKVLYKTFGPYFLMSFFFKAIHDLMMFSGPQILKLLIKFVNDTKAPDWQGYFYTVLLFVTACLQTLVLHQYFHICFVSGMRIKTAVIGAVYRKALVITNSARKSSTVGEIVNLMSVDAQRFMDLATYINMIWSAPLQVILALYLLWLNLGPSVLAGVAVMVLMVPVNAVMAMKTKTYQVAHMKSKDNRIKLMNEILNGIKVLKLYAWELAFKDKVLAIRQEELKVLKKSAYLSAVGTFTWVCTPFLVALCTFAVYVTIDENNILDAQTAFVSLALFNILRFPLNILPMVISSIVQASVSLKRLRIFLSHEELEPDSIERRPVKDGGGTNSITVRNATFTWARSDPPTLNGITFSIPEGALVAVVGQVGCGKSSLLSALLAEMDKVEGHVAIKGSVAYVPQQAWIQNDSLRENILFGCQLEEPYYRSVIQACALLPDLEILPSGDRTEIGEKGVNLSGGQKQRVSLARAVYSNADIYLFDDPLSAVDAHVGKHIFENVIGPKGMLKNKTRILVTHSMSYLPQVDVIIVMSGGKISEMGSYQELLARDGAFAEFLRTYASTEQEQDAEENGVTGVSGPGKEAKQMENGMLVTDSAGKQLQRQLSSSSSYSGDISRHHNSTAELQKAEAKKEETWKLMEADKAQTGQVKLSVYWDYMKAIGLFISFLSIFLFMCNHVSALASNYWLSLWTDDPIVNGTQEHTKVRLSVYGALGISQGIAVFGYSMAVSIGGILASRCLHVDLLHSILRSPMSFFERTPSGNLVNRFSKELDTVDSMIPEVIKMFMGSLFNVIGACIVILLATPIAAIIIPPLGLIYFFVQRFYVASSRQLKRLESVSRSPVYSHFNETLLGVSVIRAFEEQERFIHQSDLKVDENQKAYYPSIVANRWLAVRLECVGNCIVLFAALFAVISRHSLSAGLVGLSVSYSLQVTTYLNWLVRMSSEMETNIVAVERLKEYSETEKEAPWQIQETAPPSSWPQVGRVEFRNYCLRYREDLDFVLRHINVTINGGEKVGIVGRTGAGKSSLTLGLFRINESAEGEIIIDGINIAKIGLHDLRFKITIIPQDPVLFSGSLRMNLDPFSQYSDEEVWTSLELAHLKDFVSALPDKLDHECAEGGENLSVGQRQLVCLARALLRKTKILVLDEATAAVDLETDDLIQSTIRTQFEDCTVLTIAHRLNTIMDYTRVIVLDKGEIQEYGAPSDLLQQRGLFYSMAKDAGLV
T1 sequence (P08183 whole entry): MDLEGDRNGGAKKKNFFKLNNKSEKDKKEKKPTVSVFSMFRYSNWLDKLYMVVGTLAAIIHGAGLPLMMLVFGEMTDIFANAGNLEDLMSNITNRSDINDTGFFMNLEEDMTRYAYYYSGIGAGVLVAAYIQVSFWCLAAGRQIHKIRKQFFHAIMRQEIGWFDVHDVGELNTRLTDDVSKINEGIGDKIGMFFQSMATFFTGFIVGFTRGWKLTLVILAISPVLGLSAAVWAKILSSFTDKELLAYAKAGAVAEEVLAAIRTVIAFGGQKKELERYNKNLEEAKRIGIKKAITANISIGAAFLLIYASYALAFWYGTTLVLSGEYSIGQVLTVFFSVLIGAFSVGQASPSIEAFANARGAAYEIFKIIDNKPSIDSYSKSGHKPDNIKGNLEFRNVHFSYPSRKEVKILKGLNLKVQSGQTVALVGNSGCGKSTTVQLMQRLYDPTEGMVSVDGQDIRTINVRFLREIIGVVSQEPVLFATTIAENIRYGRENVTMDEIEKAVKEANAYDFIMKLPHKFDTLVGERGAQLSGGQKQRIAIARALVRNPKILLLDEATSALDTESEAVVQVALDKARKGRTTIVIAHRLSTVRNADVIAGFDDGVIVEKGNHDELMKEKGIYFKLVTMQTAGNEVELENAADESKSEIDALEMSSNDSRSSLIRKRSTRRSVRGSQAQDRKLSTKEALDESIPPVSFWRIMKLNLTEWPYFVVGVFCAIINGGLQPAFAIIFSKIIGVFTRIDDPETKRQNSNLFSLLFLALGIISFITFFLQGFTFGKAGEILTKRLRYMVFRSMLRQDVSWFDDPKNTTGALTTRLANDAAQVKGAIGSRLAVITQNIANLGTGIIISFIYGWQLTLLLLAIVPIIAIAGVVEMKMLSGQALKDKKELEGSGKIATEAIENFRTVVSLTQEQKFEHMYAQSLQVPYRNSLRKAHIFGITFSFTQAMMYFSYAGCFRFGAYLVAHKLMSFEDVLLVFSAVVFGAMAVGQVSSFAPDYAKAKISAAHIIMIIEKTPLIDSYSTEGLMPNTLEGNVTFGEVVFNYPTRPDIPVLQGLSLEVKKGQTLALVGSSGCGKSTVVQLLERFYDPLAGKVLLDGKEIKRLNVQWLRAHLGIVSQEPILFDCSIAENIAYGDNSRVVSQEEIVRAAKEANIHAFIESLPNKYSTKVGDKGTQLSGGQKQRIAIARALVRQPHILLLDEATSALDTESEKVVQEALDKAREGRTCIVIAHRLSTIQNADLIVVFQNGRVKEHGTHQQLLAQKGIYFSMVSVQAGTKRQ
Chain of P-glycoprotein (ABCB1) (P08183 whole entry): as above

Structure (SMILES)	inhibition (INH) [5]	inhibition (INH) [6]	inhibition (INH) [8]	Activity [18]	pIC50 (HCT-116)	pIC50 (SW-620 [1])	pIC50 [2]	pIC50 [3]	pIC50 [4]	Activity (K562 [7])	fold change (FC) [9]	fold change (FC) [10]	fold change (FC) (MCF7 [11])	fold change (FC) [12]	Activity (MCF7 [13])	Activity [14]	Activity [15]	Activity [16]	Activity (K562 [17])	inhibition (Homo sapiens)	other results
COc1cc2c(cc1OC)CN(CCc1ccc(NC(=O)c3ccccc3NC(=O)c3ccc(F)cc3[N+](=O)[O-])cc1)CC2	Active	Dose-dependent effect	Not Active	119.1%	< 4.00	< 4.00	< 4.00	< 4.00	< 5.00	Non-toxic	1.1	35	1.7	46	Non-toxic	Non-toxic	Non-toxic	Non-toxic	57.3%	Dose-dependent effect	pIC50 (Hepatocyte): 4.00; inhibition at 1 h, 0.5 µM (BCRP (ABCG2)): 60%; fold change (FC) (HepG2 [22]): 0.76; fold change (FC) [23]: 0.36; fold change (FC) (SW-620 [24]): 1.6; fold change (FC) [25]: 3.62; Activity (SW-620 [26]): Non-toxic; Activity [27]: Non-toxic; Activity (HepG2 [28]): Non-toxic; Activity (HepG2 [29]): Non-toxic; Activity [19]: Active
COc1cc2c(cc1OC)CN(CCc1ccc(NC(=O)c3ccccc3NS(=O)(=O)c3ccc(C(C)(C)C)cc3)cc1)CC2			Not Active	Not Active	< 4.00	< 4.00	< 4.00	< 4.00	< 4.00										inactive		inhibition (INH) [20]: Active

Now from value to compound, other results behind:

inhibition (INH) [5]	inhibition (INH) [6]	inhibition (INH) [8]	Activity [18]	Structure (SMILES)	pIC50 (HCT-116)	pIC50 (SW-620 [1])	pIC50 [2]	pIC50 [3]	pIC50 [4]	Activity (K562 [7])	fold change (FC) [9]	fold change (FC) [10]	fold change (FC) (MCF7 [11])	fold change (FC) [12]	Activity (MCF7 [13])	Activity [14]	Activity [15]	Activity [16]	Activity (K562 [17])	inhibition (Homo sapiens)	other results
Active	Dose-dependent effect	Not Active	118.6%	COc1cc2c(cc1OC)CN(CCc1ccc(NC(=O)c3ccccc3NC(=O)/C=C/c3ccccc3)cc1)CC2	< 4.00	< 4.00	< 4.00	< 4.00	< 4.70	Non-toxic	1.6	33	1.5	64	Non-toxic	Non-toxic	Non-toxic	Non-toxic	46.3%	Dose-dependent effect	pIC50 (Hepatocyte): 4.00; inhibition at 1 h, 0.5 µM (BCRP (ABCG2)): 60%; Activity [19]: Active
	Dose-dependent effect	Not Active	90.7%	COc1cc2c(cc1OC)CN(CCc1ccc(NC(=O)c3ccccc3NC(=O)c3cnc4ccccc4c3)cc1)CC2	< 4.00	< 4.00	< 4.00	< 4.00	< 5.30	Non-toxic	0.9	2.8	1.3	2.9	Non-toxic	Non-toxic	Non-toxic	Non-toxic	93.2%	Dose-dependent effect	pIC50 (Hepatocyte): 4.30; inhibition at 1 h, 0.5 µM (P-glycoprotein (ABCB1)): 90.5%; inhibition (INH) [20]: Active; inhibition (INH) [21]: Active; fold change (FC) (HepG2 [22]): 0.29; fold change (FC) [23]: 0.38; fold change (FC) (SW-620 [24]): 0.36; fold change (FC) [25]: 6.23; Activity (SW-620 [26]): Non-toxic; Activity [27]: Non-toxic; Activity (HepG2 [28]): Non-toxic; Activity (HepG2 [29]): Non-toxic; Activity [19]: Active
Active	Dose-dependent effect	Not Active		COc1cc2c(cc1OC)CN(CCc1ccc(NC(=O)c3ccccc3N(S(=O)(=O)c3ccc(Br)cc3)S(=O)(=O)c3ccc(Br)cc3)cc1)CC2	< 4.00	< 4.00	< 4.00	< 4.00	< 5.30	Non-toxic	1.3	36					Non-toxic	Non-toxic	47%	Dose-dependent effect	Activity (Hepatocyte): Non-toxic; inhibition (INH) [20]: Active
Active	Dose-dependent effect	Not Active	149.4%	COc1cc2c(cc1OC)CN(CCc1ccc(NC(=O)c3ccccc3NC(=O)c3ccco3)cc1)CC2	< 4.00	< 4.00	< 4.00	< 4.00	< 4.00	Non-toxic	1.3	46	1.4	2.1	Non-toxic	Non-toxic	Non-toxic	Non-toxic	35.5%	Dose-dependent effect	Activity (Hepatocyte): Non-toxic; inhibition (INH) [21]: Active; fold change (FC) (HepG2 [22]): 1.09; fold change (FC) [23]: 3; fold change (FC) (SW-620 [24]): 2.1; fold change (FC) [25]: 2.63; Activity (SW-620 [26]): Non-toxic; Activity [27]: Non-toxic; Activity (HepG2 [28]): Non-toxic; Activity (HepG2 [29]): Non-toxic; Activity [19]: Active
